Laboratory results taken from patent US8466291B2, “1,5-dideoxy-1,5-imino-D-glucitol compounds” (Academia Sinica, priority 2008, dated 2013).

Molecular target: T1, human Hex B (FLAG-HexB) (Homo sapiens, UniProt P07686)
T1 construct: FLAG (N); expressed in transfected cells
T1 sequence (P07686 122-556): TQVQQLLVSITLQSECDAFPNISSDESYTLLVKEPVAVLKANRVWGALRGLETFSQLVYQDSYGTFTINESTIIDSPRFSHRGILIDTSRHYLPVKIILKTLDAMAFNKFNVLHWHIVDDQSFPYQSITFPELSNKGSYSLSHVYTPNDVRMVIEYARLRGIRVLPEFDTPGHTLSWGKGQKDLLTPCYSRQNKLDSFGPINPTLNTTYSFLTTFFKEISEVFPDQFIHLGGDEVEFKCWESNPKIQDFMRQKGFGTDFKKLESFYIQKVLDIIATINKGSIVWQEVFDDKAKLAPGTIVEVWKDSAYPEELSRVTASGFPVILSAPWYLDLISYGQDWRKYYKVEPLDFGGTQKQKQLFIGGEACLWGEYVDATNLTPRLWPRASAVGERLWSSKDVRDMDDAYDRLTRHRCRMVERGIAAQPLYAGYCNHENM
Test: In situ immunostaining of Compound 5 and FLAG-HexB in 293T/FLAG-HexB cells
Assay type: cell-based
Conditions: confocal immunofluorescence, anti-FLAG and anti-biotin antibodies
Procedure: A DNA fragment encoding human Hex B was amplified by PCR and cloned into pCMV-Tag 2B vector (Stratagene) to produce FLAG-tagged HexB expression plasmid (pFLAG-HexB). This plasmid was introduced into 293T cells to establish a cell line stably expressing FLAG-HexB. Briefly, 293T cells were maintained in Dulbecco's modified Eagle's medium (DMEM) supplemented with 10% (by volumn) heat inactivated fetal bovine serum (FBS), 2 mM glutamine, 100 units/mL penicillin and 100 μg/mL streptomycin at 37° C. in a 5% CO2 atmosphere. These cells were transfected with expression plasmid pFLAG-HexB and plasmid pBabe-puro (carrying a puromycin resistance gene) at a molar ratio of 30-40:1. 8 hours later, the transfected cells were fed with fresh medium and incubated for 16 h. These cells were then cultured in puromycin-containing (2 μg/mL) medium for 2-3 weeks to screen for puromycin-resistant clones.
Binding of Compound 5 to HexB was first examined by in situ immunostaining as follows. 293T/FLAG-HexB cells were grown on glass coverslips in the presence of biotin-conjugated Compound 5 and fixed in 4% paraformaldehyde for 15 min. […]

CC(=O)NC1CN(CCCCCCCNC(=O)CCCCC2SCC3NC(=O)NC32)C(CO)C(O)C1O (stereo not shown) [Compound 5]
co-localization of FLAG-HexB and compound: co-localized in the cytoplasm
